± gives the expanded uncertainty stated by the source.
Conditions: Liquid, Ebulliometric method (Recirculating still)

SMILES	vapor or sublimation pressure (394.71 K) [kPa]	vapor or sublimation pressure (400.93 K) [kPa]	vapor or sublimation pressure (406.16 K) [kPa]	vapor or sublimation pressure (365.01 K) [kPa]	vapor or sublimation pressure (370.79 K) [kPa]	vapor or sublimation pressure (375.66 K) [kPa]
OCC(F)(F)C(F)(F)C(F)(F)C(F)F [2,2,3,3,4,4,5,5-octafluoro-1-pentanol]	53.3 ± 0.5	66.7 ± 0.5	80 ± 0.6	–	–	–
OCC(F)(F)C(F)F [2,2,3,3-tetrafluoro-1-propanol]	–	–	–	53.3 ± 0.5	66.7 ± 0.5	80 ± 0.6

Reference: the NIST ThermoML archive (doi:10.1021/acs.jced.6b00429)
